Measurements from patent US20230120597A1, “CO-AGONISTS AT GLP-1 AND GIP RECEPTORS SUITABLE FOR ORAL DELIVERY” (Novo Nordisk A/S, priority 2020, published 2023).
Read-outs that look alike come from different tables or passages of the source. Starred links: 1 amine or outer side, 2 acyl side, 3 side chain; linkers in the order of their positions; H or OH if unused. Non-standard residues stand in square brackets, D forms with d. Residues, ends and D or L forms follow the SMILES beside them. Groups on a side chain read outwards from the residue. *: point of attachment. C18 diacid = O=C(O)CCCCCCCCCCCCCCCCC(=O)*; γGlu = O=C(O)[C@H](CCC(=O)[*:2])N[*:1]; εLys = N[C@@H](CCCCN[*:1])C(=O)[*:2]; Aib = CC(C)(N)C(=O)O

Experiments:
human GIP receptor = target: T1, human GIP receptor (Homo sapiens, UniProt P48546); experiment: In vitro functional potency, CRE luciferase reporter gene assay, whole BHK cells expressing hGIPR; assay type: cell-based; conditions: BHK CRE luc2P hGIPR cells
T1 construct: expressed in transfected cells; host or cells: BHK (parent line BHKTS13), clone BHK CRE luc2P hGIPR
T1 sequence (P48546 22-466): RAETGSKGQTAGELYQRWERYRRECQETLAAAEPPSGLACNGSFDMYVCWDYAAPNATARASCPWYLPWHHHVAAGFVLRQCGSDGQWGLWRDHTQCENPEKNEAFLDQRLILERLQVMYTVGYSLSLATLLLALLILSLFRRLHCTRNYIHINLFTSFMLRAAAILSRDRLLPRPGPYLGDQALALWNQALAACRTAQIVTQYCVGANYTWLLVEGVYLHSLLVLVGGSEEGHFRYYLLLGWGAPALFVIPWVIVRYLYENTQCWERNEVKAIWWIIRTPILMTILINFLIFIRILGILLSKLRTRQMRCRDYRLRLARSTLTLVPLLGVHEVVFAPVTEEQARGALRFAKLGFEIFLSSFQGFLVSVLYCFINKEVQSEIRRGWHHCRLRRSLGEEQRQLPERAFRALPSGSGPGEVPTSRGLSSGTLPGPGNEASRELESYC
Procedure: (§1) The in vitro functional potency is the measure of target receptor activation in a whole cell assay.
(§2) In vitro functional potency was determined by measuring the response of the target receptor in a reporter gene assay in individual cell lines. […] When the respective receptor is activated, it results in the production of cAMP, which in turn results in expression of the luciferase protein. When assay incubation is completed, luciferase substrate (luciferin) is added resulting in the enzymatic conversion of luciferin to oxyluciferin and producing bioluminescence. The luminescence is measured as the readout for the assay.
(§3) The cells lines used in these assays were BHK cells with BHKTS13 as a parent cell line. The cell lines were derived from a clone containing the CRE luciferase element and were established by further transfection with the respective human receptor to obtain the relevant cell line: BHK CRE luc2P hGLP-1R or BHK CRE luc2P hGIPR. The cells were cultured at 37° C. with 5% CO2 in Cell Culture Medium. They were aliquoted and stored in liquid nitrogen. The cells were kept in continuous culture and were seeded out the day before each assay.
(§4) GLP-1R Cell Culture Medium consisted of DMEM medium with 10% FBS, 500 μg/mL G418, and 300 μg/mL hygromycin. GIPR Cell Culture Medium consisted of DMEM medium with 10% FBS, 400 μg/mL G418, and 300 μg/mL hygromycin. Assay Buffer consisted of DMEM w/o phenol red, 10 mM Hepes, 1× Glutamax. 1% ovalbumin, and 0.1% Pluronic F-68 with the addition of HSA at twice the final assay concentration.
(§5) Procedure • 1) Cells were plated at 5000 cells/well and incubated overnight in the assay plate. • 2) Cells were washed once in DPBS. • 3) Stocks of the test compounds and reference compounds in concentrations ranging from […] were diluted 1:150 in Assay Buffer. Compounds were then diluted 1:10 in column 1 of a 96 deep well dilution plate and then carried across the row creating a 3.5 fold, 12 point dilution curve. • 4) Assay Buffer (50 μl aliquot) with or without HSA was added to each well in the assay plate. • 5) A 50 μl aliquot of compound or blank was transferred from the dilution plate to the assay plate containing the Assay Buffer with or without HSA. • 6) The assay plate was incubated for 3 h in a 5% CO2 incubator at 37° C. • 7) The cells were washed once with DPBS. • 8) A 100 μl aliquot of DPBS was added to each well of the assay plate. • 9) A 100 μl aliquot of steadylite plus reagent (light sensitive) was added to each well of the assay plate. • 10) Each assay plate was covered with aluminum foil to protect it from light and shaken at 250 RPM for 30 min at room temperature. • 11) Each assay plate was read in a microtiter plate reader.
(§6) The data from the microtiter plate reader was first regressed in an Excel in order to calculate the x-axis, log scale concentrations based on the individual test compound's stock concentration and the dilutions of the assay. […] The software performs a non-linear regression (log(agonist) vs response). A minimum of two replicates was measured for each sample. The reported values are averages of the replicates.

human GLP-1 receptor = target: T2, human GLP-1 receptor (Homo sapiens, UniProt P43220); experiment: In vitro functional potency, CRE luciferase reporter gene assay, whole BHK cells expressing hGLP-1R; assay type: cell-based; conditions: BHK CRE luc2P hGLP-1R cells
T2 construct: expressed in transfected cells; host or cells: BHK (parent line BHKTS13), clone BHK CRE luc2P hGLP-1R
Procedure: as §1, §2, §3, §4, §5, §6

[1] = Pharmacokinetic study in dogs, oral dosing of tablet compositions with SNAC; assay type: in vivo, Beagle dogs; conditions: dog, in vivo, po
Procedure: The purpose of this example is to determine the half-life and plasma exposure in vivo of the compounds of the present invention after p.o. administration to beagle dogs, i.e. the terminal half-life and concentration of test substance that reaches circulation with time. This is done in a pharmacokinetic (PK) study, where these parameters of the compound in question are determined. By terminal half-life is generally meant the period of time it takes to halve a certain plasma concentration, measured after the initial distribution phase.
The amount of SNAC in the tablet composition was 100-300 mg, the amount of magnesium stearate in the tablet composition was 7.7 mg, and the target amount of each test substance in the tablet composition was 3-4 mg.
Male beagle dogs, 1-7 years of age and weighing 9-17 kg during the study period, were included in the study. The dogs were dosed in a fasting state. The dogs were group housed in pens (12 hours light: 12 hours dark), and fed individually and restrictedly once daily with Royal Canin Medium Adult dog food (Royal Canin Products, China Branch, or Brogaarden A/S, Denmark). The dogs were used for repeated PK studies with a suitable wash-out period between successive dosing. An appropriate acclimatization period was given prior to initiation of the first PK study. All handling, dosing, and blood sampling of the animals were performed by trained and skilled staff. Before the studies, the dogs were fasted overnight and from 0 to 4 hours after dosing. The dogs were restricted to water 1 hour before dosing until 4 hours after dosing, but otherwise had ad libitum access to water during the whole period.
The compositions were administered by a single oral dosing to the dogs in groups of 6-8 dogs. […] The mouth was then closed, and 10 mL of tap water was given by syringe or gavage to facilitate swallowing of the tablet.
One blood sample was drawn before dosing, and additional samples were drawn at predefined time points after dosing for up to 240 hours, such as up to 10 hours, to adequately cover the full plasma concentration-time absorption profile of the test substance. For each blood sample time point, approximately 0.8 mL of whole blood was collected in a 1.5 mL EDTA-coated tube, which was gently turned to mix the sample with EDTA. Blood samples were collected in EDTA buffer (8 mM) and then centrifuged at 4° C. 2000 g for 10 minutes. Plasma was pipetted into Micronic tubes on dry ice, and kept at −20° C. or lower until analysis. Blood samples were taken as appropriate, for example from a venflon in the cephalic vein in the front leg for the first 2 hours and then with syringe from the jugular vein for the rest of the time points. The first few drops were allowed to drain from the venflon to avoid heparin saline from the venflon in the sample.
All blood samples were collected into test tubes containing EDTA for stabilisation and kept on ice until centrifugation. Plasma was separated from whole blood by centrifugation and the plasma was stored at −20° C. or lower until analysis.
The plasma was analysed for test substance using LC-MS (Liquid Chromatography-Mass Spectrometry) as known to the person skilled in the art. […] RP-HPLC separation was achieved using a linear gradient of 1:1 acetonitrile/methanol in 1% aqueous formic acid using either: a Phenomenex Onyx Monolithic C18 column (50×2.0 mm) and a flow rate of 0.8 mL/min at 30° C.; or an Agilent Poroshell 120 SB-C18 column (50×2.1 mm, 2.7 μm) at a flow rate of 0.4 mL/min at 60° C. The mass spectrometer was operated in either positive ionization SIM mode or positive ionization PRM mode.
For each individual animal, a plasma concentration-time profile was analysed by a non-compartmental model in Pharsight Phoenix WinNonLin ver.

T2 sequence (P43220 24-463): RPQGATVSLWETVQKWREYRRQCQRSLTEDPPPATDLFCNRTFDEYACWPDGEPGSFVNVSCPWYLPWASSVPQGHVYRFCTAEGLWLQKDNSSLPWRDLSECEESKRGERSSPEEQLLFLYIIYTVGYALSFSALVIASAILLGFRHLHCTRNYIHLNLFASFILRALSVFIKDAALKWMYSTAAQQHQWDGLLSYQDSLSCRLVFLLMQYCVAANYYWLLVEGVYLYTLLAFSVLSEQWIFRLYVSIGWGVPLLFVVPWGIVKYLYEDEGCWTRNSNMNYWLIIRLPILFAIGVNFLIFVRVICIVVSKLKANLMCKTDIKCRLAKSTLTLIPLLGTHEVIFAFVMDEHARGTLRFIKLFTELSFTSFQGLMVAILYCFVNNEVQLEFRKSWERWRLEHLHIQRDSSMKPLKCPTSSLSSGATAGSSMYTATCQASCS

SMILES	EC50 (human GIP receptor; 0% HSA, read-out: hGIPR, CRE Luc 0% HSA EC50)	EC50 (human GIP receptor; hGIPR, CRE Luc 1% HSA EC50, 1% HSA)	EC50 (human GLP-1 receptor; 0% HSA, read-out: hGLP-1R, CRE Luc 0% HSA EC50)	EC50 (human GLP-1 receptor; hGLP-1R, CRE Luc 1% HSA EC50, 1% HSA)	AUC/Dose [1]	Cmax/Dose [1]
CC(C)C[C@H](NC(=O)[C@H](CC(C)C)NC(=O)[C@H](Cc1c[nH]c2ccccc12)NC(=O)[C@H](CC(N)=O)NC(=O)[C@@H](NC(=O)[C@H](Cc1ccccc1)NC(=O)[C@H](C)NC(=O)[C@H](CCC(N)=O)NC(=O)[C@H](C)NC(=O)[C@H](C)NC(=O)[C@H](CCC(N)=O)NC(=O)[C@H](CCCCNC(=O)[C@@H](N)CCCCNC(=O)[C@@H](N)CCCCNC(=O)CC[C@H](NC(=O)CCCCCCCCCCCCCCCCC(=O)O)C(=O)O)NC(=O)[C@H](CCC(=O)O)NC(=O)[C@H](CC(C)C)NC(=O)[C@H](Cc1ccc(O)cc1)NC(=O)[C@H](Cc1ccc(O)cc1)NC(=O)[C@H](CO)NC(=O)[C@H](Cc1ccc(O)cc1)NC(=O)[C@H](CC(=O)O)NC(=O)[C@H](CO)NC(=O)[C@@H](NC(=O)[C@H](Cc1ccccc1)NC(=O)[C@@H](NC(=O)CNC(=O)[C@H](CCC(=O)O)NC(=O)C(C)(C)NC(=O)[C@@H](N)Cc1ccc(O)cc1)[C@@H](C)O)[C@@H](C)O)C(C)C)C(=O)N[C@@H](C)C(=O)NCC(=O)NCC(=O)N1CCC[C@H]1C(=O)N[C@@H](CO)C(=O)N[C@@H](CO)C(=O)NCC(=O)N[C@@H](C)C(=O)N1CCC[C@H]1C(=O)N1CCC[C@H]1C(=O)N1CCC[C@H]1C(=O)N[C@@H](CO)C(N)=O [Compound No. 4] (H-Y[Aib]EGTFTSDYSYYLEK([εLys-εLys-γGlu-C18 diacid])QAAQAFVNWLLAGGPSSGAPPPS-NH2; N-terminus assumed)	0.0085 nM	0.294 nM	0.0066 nM	0.484 nM	–	–
CC[C@H](C)[C@H](NC(=O)[C@H](Cc1ccccc1)NC(=O)[C@H](CCC(=O)O)NC(=O)[C@H](CCCNC(=N)N)NC(=O)[C@H](C)NC(=O)[C@H](C)NC(=O)[C@H](CCC(N)=O)NC(=O)[C@H](CCC(=O)O)NC(=O)[C@H](CCC(=O)O)NC(=O)[C@H](CC(C)C)NC(=O)[C@H](CC(C)C)NC(=O)[C@H](CCCCNC(=O)[C@@H](N)CCCCNC(=O)[C@@H](N)CCCCNC(=O)CC[C@H](NC(=O)CCCCCCCCCCCCCCCCC(=O)O)C(=O)O)NC(=O)[C@H](CO)NC(=O)[C@H](Cc1ccc(O)cc1)NC(=O)[C@H](CC(=O)O)NC(=O)[C@H](CO)NC(=O)[C@@H](NC(=O)[C@H](Cc1ccccc1)NC(=O)[C@@H](NC(=O)CNC(=O)[C@H](CCC(=O)O)NC(=O)C(C)(C)NC(=O)[C@@H](N)Cc1ccc(O)cc1)[C@@H](C)O)[C@@H](C)O)C(=O)N[C@@H](CCC(=O)O)C(=O)N[C@@H](Cc1c[nH]c2ccccc12)C(=O)N[C@@H](CC(C)C)C(=O)N[C@@H](CC(C)C)C(=O)N[C@@H](C)C(=O)NCC(=O)NCC(=O)N1CCC[C@H]1C(=O)N[C@@H](CO)C(=O)N[C@@H](CO)C(=O)NCC(=O)N[C@@H](C)C(=O)N1CCC[C@H]1C(=O)N1CCC[C@H]1C(=O)N1CCC[C@H]1C(=O)N[C@@H](CO)C(=O)O [Compound No. 40]	–	–	–	–	27.0 kg·h/L	–
CC[C@H](C)[C@H](NC(=O)[C@H](Cc1ccccc1)NC(=O)[C@H](CCC(=O)O)NC(=O)[C@H](CCCNC(=N)N)NC(=O)[C@H](C)NC(=O)[C@H](C)NC(=O)[C@H](CCC(N)=O)NC(=O)[C@H](CCC(=O)O)NC(=O)[C@H](CCC(=O)O)NC(=O)[C@H](CC(C)C)NC(=O)[C@H](CC(C)C)NC(=O)[C@@H](NC(=O)[C@H](CO)NC(=O)[C@H](Cc1ccc(O)cc1)NC(=O)[C@H](CC(=O)O)NC(=O)[C@H](CO)NC(=O)[C@@H](NC(=O)[C@H](Cc1ccccc1)NC(=O)[C@@H](NC(=O)CNC(=O)[C@H](CCC(=O)O)NC(=O)C(C)(C)NC(=O)[C@@H](N)Cc1ccc(O)cc1)[C@@H](C)O)[C@@H](C)O)[C@@H](C)CC)C(=O)N[C@@H](CCC(=O)O)C(=O)N[C@@H](Cc1c[nH]c2ccccc12)C(=O)N[C@@H](CC(C)C)C(=O)N[C@@H](CC(C)C)C(=O)N[C@@H](C)C(=O)NCC(=O)NCC(=O)N1CCC[C@H]1C(=O)N[C@@H](CO)C(=O)N[C@@H](CCCCNC(=O)[C@@H](N)CCCCNC(=O)[C@@H](N)CCCCNC(=O)CC[C@H](NC(=O)CCCCCCCCCCCCCCCCC(=O)O)C(=O)O)C(=O)NCC(=O)N[C@@H](C)C(=O)N1CCC[C@H]1C(=O)N1CCC[C@H]1C(=O)N1CCC[C@H]1C(=O)N[C@@H](CO)C(=O)O [Compound No. 43] (H-Y[Aib]EGTFTSDYSILLEEQAAREFIEWLLAGGPSK([εLys-εLys-γGlu-C18 diacid])GAPPPS-OH)	–	–	–	–	21.4 kg·h/L	0.22 kg/L
